Consider 38 compounds from ChEMBL document CHEMBL4483862, “Open-source discovery of chemical leads for next-generation chemoprotective antimalarials” (2018).

For the assay, the system named is Plasmodium berghei. Put plainly: Luciferase/luciferin-expressing antifolate-resistant parasites were used to infect a culture of HepG2 cells that were pre-incubated with compounds. Infected hepatocytes emit light due to the luciferase reaction. Assay results are presented as the percent inhibition of light emission compared to control. […]. In kind it is functional. Conditions: sporozoite; for IC90: read-out: LUCIFERASE INFECTION ASSAY - IC90.

The mark [1] stands for this setting: read-out: LUCIFERASE INFECTION ASSAY - IC50.

A word on the IC50: it is the point on the concentration scale where inhibition reaches its midpoint. By IC90 is commonly meant the concentration needed for an effect of 90%. As for `c1ccc(Oc2cccc(Nc3nccc4nc(-c5ccccc5)[nH]c34)c2)cc1`, the IC90 came out at 3.51 µM. For the same compound, the IC50 (HEPG2TOX_HILL_SLOPE 1.11, HEPG2TOX_R_SQUARED 0.909, PBLUC_HILL_SLOPE 45.8, PBLUC_R_SQUARED 0.688, read-out: LUCIFERASE INFECTION ASSAY - IC50) was found to be 3.34 µM. In the case of `CNC(=O)c1cccc(Nc2ccn3nc(-c4ccccc4)cc3n2)c1`, the concentration for an effect of 90% (IC90) stood at 3.76 µM. On to `CCOC(=O)c1nn(Cc2cccc(OC)c2)c2c1CN(C(=O)c1cc3ccccc3o1)CC2`, for which the IC90 is > 7.18 µM. In addition, for the setting “PBLUC_HILL_SLOPE 17.5, PBLUC_R_SQUARED 0.669, read-out: LUCIFERASE INFECTION ASSAY - IC50”, the IC50 came out at 7.12 µM. For `CCc1c(C)[nH]c2c(-c3ccc(Cl)cc3)c(C)nn2c1=O`, the 90% effect concentration (IC90) is > 10.9 µM. Moreover, the IC50 (PBLUC_HILL_SLOPE 2.9, PBLUC_R_SQUARED 0.859, read-out: LUCIFERASE INFECTION ASSAY - IC50) is 6.48 µM. As to `CC(Cc1ccco1)NCc1ccc(-n2ccnc2)cc1` (stereo not given), the IC90 was > 10 µM. Besides, the IC50 under setting [1] is > 10 µM.

Turning to `CCOc1cc(CN(C)c2cncc(-n3cccn3)n2)ccc1OC(F)F`, the IC90 is > 10 µM. For the same compound, the half-inhibitory concentration (IC50) under setting [1] is > 10 µM. Consider `CCNC(=O)c1nn(Cc2ccccc2)c2c1CC(NCC(C)C)CC2` (stereo not given), for which the IC90 was > 9.31 µM. Moreover, the IC50 (PBLUC_HILL_SLOPE 1.56, PBLUC_R_SQUARED 0.224, read-out: LUCIFERASE INFECTION ASSAY - IC50) came out at 6.64 µM.

On to `Cc1cc(C(=O)COC(=O)c2ccccc2OCc2ccccc2Cl)c(C)n1CC1CCCO1` (stereo not given), for which the IC90 was > 10 µM. In addition, the IC50 (HEPG2TOX_HILL_SLOPE 0.0867, HEPG2TOX_R_SQUARED 0.214, read-out: LUCIFERASE INFECTION ASSAY - IC50) was > 10 µM.

Turning to `CC1=C(c2nc(-c3ccc(C)cc3)no2)C(c2ccco2)NC(=S)N1` (stereo not given), the IC90 is > 10 µM. The IC50 (HEPG2TOX_HILL_SLOPE 4.63, HEPG2TOX_R_SQUARED 0.779, PBLUC_HILL_SLOPE 2.07, PBLUC_R_SQUARED 0.517, read-out: LUCIFERASE INFECTION ASSAY - IC50) came to 7.61 µM. As to `Cc1cc[n+](CC(=O)Nc2ccc(OC(F)F)cc2)c2ccccc12`, the IC90 came to 1.27 µM. Moreover, the IC50 (HEPG2TOX_HILL_SLOPE 2.14, HEPG2TOX_R_SQUARED 0.242, PBLUC_HILL_SLOPE 15.8, PBLUC_R_SQUARED 0.258, read-out: LUCIFERASE INFECTION ASSAY - IC50) was 1.1 µM.

Take `Cc1nc2ccccn2c1C(=O)N/N=C/c1ccccc1O`: the IC90 is > 11.2 µM. The concentration for half-maximal inhibition (IC50) under setting [1] worked out at 10.1 µM. The matching figures for `c1ccc(CN2CCc3nc(NCc4cccc(Oc5ccccc5)c4)ncc3C2)cc1`: > 7.81 µM and > 7.81 µM. Consider `CCOC(=O)c1[nH]c(C)c(C(=O)/C=C/c2c(C)nn(-c3ccc(F)cc3)c2Cl)c1C`, for which the IC90 was 0.643 µM. Also, the IC50 (HEPG2TOX_HILL_SLOPE 1.33, HEPG2TOX_R_SQUARED 0.905, PBLUC_HILL_SLOPE 0.748, PBLUC_R_SQUARED 0.781, read-out: LUCIFERASE INFECTION ASSAY - IC50) came to 0.0341 µM. Consider `CC(=O)NC(C)CCc1ccc(-c2csc(-c3ccc(NC(=O)C4CC4)cc3)n2)cc1` (stereo not given), for which the 90% effect concentration (IC90) stood at 0.146 µM. The IC50 (PBLUC_HILL_SLOPE 9.6, PBLUC_R_SQUARED 0.721, read-out: LUCIFERASE INFECTION ASSAY - IC50) stood at 0.116 µM.

Turning to `COC(=O)c1occc1/C=C/C(=O)c1ccc(OCc2ccccc2)cc1`, the IC90 is > 10 µM. Further, the IC50 under setting [1] was > 10 µM. `O=C(CN1CCN(S(=O)(=O)c2cccs2)CC1)Nc1ccccc1C(=O)c1ccccc1`: the IC90 was > 10 µM. The IC50 (PBLUC_HILL_SLOPE 1.98, PBLUC_R_SQUARED 0.361, read-out: LUCIFERASE INFECTION ASSAY - IC50) stood at 5.33 µM. Take `CSc1nncn1-c1ccccc1`: the IC90 was 15.4 µM. Moreover, the IC50 (PBLUC_HILL_SLOPE 3.17, PBLUC_R_SQUARED 0.315, read-out: LUCIFERASE INFECTION ASSAY - IC50) came out at 7.69 µM. Turning to `Cc1sc2nc(-c3cccnc3)nc(N3CCN(S(=O)(=O)/C=C/c4ccccc4)CC3)c2c1C`, the IC90 was > 10 µM. For the same compound, the IC50 (PBLUC_HILL_SLOPE 11.2, PBLUC_R_SQUARED 0.469, read-out: LUCIFERASE INFECTION ASSAY - IC50) was determined as 8.64 µM. Regarding `COc1ccc2[nH]c(C(=O)Nc3ccc(F)cc3)c(C)c2c1`, the IC90 was determined as 4.28 µM. Further, for the setting “HEPG2TOX_HILL_SLOPE 0.946, HEPG2TOX_R_SQUARED 0.313, PBLUC_HILL_SLOPE 15.5, PBLUC_R_SQUARED 0.583, read-out: LUCIFERASE INFECTION ASSAY - IC50”, the IC50 worked out at 3.72 µM. Turning to `Nc1ccc(-c2cn3c(-c4ccc5ncccc5c4)cnc3cn2)cn1`, the IC90 was determined as 8.67 µM. Moreover, where the note is “HEPG2TOX_HILL_SLOPE 12.3, HEPG2TOX_R_SQUARED 0.596, PBLUC_HILL_SLOPE 12.7, PBLUC_R_SQUARED 0.251, read-out: LUCIFERASE INFECTION ASSAY - IC50”, the IC50 came to 7.29 µM. As to `CC(C1CC2CCC1C2)n1c(SCc2nnc(-c3ccccc3)o2)nnc1-c1ccco1` (stereo not given), the concentration for an effect of 90% (IC90) was > 10 µM. Besides, the IC50 (FFLUC_HILL_SLOPE 12, FFLUC_R_SQUARED 0.233, read-out: LUCIFERASE INFECTION ASSAY - IC50) is > 10 µM. On to `CCN(CC)S(=O)(=O)c1ccc(C)c(NC(=O)CCc2ncc(-c3ccc(C)cc3)o2)c1`, for which the IC90 was 8.55 µM. Moreover, the IC50 (HEPG2TOX_HILL_SLOPE 2.43, HEPG2TOX_R_SQUARED 0.985, PBLUC_HILL_SLOPE 1.82, PBLUC_R_SQUARED 0.587, read-out: LUCIFERASE INFECTION ASSAY - IC50) came out at 2.56 µM. As for `Brc1ccc(-c2ccc(CN3CCNCC3)s2)cc1`, the IC90 was > 10 µM. For the same compound, the IC50 (HEPG2TOX_HILL_SLOPE 2.72, HEPG2TOX_R_SQUARED 0.0418, read-out: LUCIFERASE INFECTION ASSAY - IC50) was > 10 µM. Consider `CCOC(=O)c1c(S(=O)(=O)N2CCN(c3ncccc3C(F)(F)F)CC2)c(-c2ccccc2)n(-c2ccccc2)c1C`, for which the IC90 is > 5.51 µM. Under “FFLUC_HILL_SLOPE 0.343, FFLUC_R_SQUARED 0.352, PBLUC_HILL_SLOPE 1.97, PBLUC_R_SQUARED 0.72, read-out: LUCIFERASE INFECTION ASSAY - IC50”, the IC50 is > 5.51 µM. On to `O=C(OCC(=O)C12CC3CC(CC(C3)C1)C2)c1ccc(Oc2ccc(Cl)cc2[N+](=O)[O-])cc1`, for which the IC90 is > 10 µM. For the same compound, for the setting “FFLUC_HILL_SLOPE 17.5, FFLUC_R_SQUARED 0.352, PBLUC_HILL_SLOPE 8.52, PBLUC_R_SQUARED 0.214, read-out: LUCIFERASE INFECTION ASSAY - IC50”, the IC50 came to 9.42 µM. In the case of `CCC(=O)Nc1c(-c2nc3ccccc3[nH]2)c(C)c(C)n1C1CCCC1`, the 90% effect concentration (IC90) was > 9.42 µM. The IC50 (PBLUC_HILL_SLOPE 2, PBLUC_R_SQUARED 0.418, read-out: LUCIFERASE INFECTION ASSAY - IC50) came to 6.01 µM.

Take `CNC(=O)c1ccc2n1CCN(C(=O)OCc1ccccc1)C2C` (stereo not given): the IC90 was > 10 µM. Where the note is “PBLUC_HILL_SLOPE 1.5, PBLUC_R_SQUARED 0.67, read-out: LUCIFERASE INFECTION ASSAY - IC50”, the IC50 was 3.17 µM.

Turning to `Cc1nc2ccccc2n1CCC(=O)Nc1cccc(Cl)c1`, the IC90 came to 8.51 µM. Besides, the 50% inhibitory concentration (IC50) (PBLUC_HILL_SLOPE 4.62, PBLUC_R_SQUARED 0.253, read-out: LUCIFERASE INFECTION ASSAY - IC50) is 5.29 µM. As to `COc1ccc(Cl)cc1NC(=O)N1CCC(Cc2ccccc2)CC1`, the IC90 is > 9.2 µM. In addition, the IC50 under setting [1] was > 9.2 µM.

In the case of `CCOC(=O)c1c(-c2ccccc2)csc1NC(=O)c1cc(-c2ccco2)nc2ccccc12`, the concentration for an effect of 90% (IC90) was 9.72 µM. For the same compound, for the setting “FFLUC_HILL_SLOPE 28.5, FFLUC_R_SQUARED 0.474, PBLUC_HILL_SLOPE 2.84, PBLUC_R_SQUARED 0.759, read-out: LUCIFERASE INFECTION ASSAY - IC50”, the half-inhibitory concentration (IC50) is 4.48 µM. On to `Cc1cccc(/C=C(/C(=O)NCc2ccc(NC(=O)C(C)C)cc2)c2cccs2)c1`, for which the IC90 was determined as 4.58 µM. Further, the IC50 (PBLUC_HILL_SLOPE 14.7, PBLUC_R_SQUARED 0.598, read-out: LUCIFERASE INFECTION ASSAY - IC50) was 3.95 µM.

In the case of `CSc1sc(Br)c2c1/C(=N\O)CC(C)(C)C2`, the 90% effect concentration (IC90) was > 10.3 µM. Also, under setting [1], the IC50 is > 10.3 µM.

On to `Cc1nn(-c2ccccc2)c(N2CCCC2)c1/C=N/Nc1ccc(S(N)(=O)=O)cc1[N+](=O)[O-]`, for which the IC90 is > 10 µM. Moreover, under setting [1], the IC50 is 9.05 µM.

Regarding `Cn1nc(C(=O)N2CCc3ccccc3C2)c2c1CCC(NCCc1nc(-c3ccccc3)cs1)C2` (stereo not given), the IC90 was > 6.63 µM. Further, the IC50 (PBLUC_HILL_SLOPE 5.11, PBLUC_R_SQUARED 0.298, read-out: LUCIFERASE INFECTION ASSAY - IC50) came to 5.56 µM. With `CCOc1ccccc1C(=O)CN1C(=O)COc2ccccc2C1=O`, the IC90 was > 9.72 µM. The IC50 under setting [1] was > 9.72 µM. In the case of `O/N=C1/c2ccccc2-c2nnc(-c3cccc(OC(F)(F)F)c3)cc21`, the IC90 worked out at 1.49 µM. The IC50 (PBLUC_HILL_SLOPE 1.48, PBLUC_R_SQUARED 0.765, read-out: LUCIFERASE INFECTION ASSAY - IC50) stood at 0.337 µM.

With `COc1ccc(C(=O)Nc2ccccc2-c2nc3ccccc3[nH]2)cc1S(=O)(=O)N1CCCC1`, the IC90 was > 10 µM. Further, the half-inhibitory concentration (IC50) (PBLUC_HILL_SLOPE 15.4, PBLUC_R_SQUARED 0.501, read-out: LUCIFERASE INFECTION ASSAY - IC50) was 8.92 µM. Consider `O=C(Nc1ccc(Cl)cc1)Nc1nc(-c2cc(Cl)c(Cl)s2)cs1`, for which the IC90 came out at 1.77 µM. Also, the IC50 under setting [1] stood at 1.13 µM.
